# Reference: article PMC11054271, “ABCG2 Transports the Flukicide Nitroxynil and Affects Its Biodistribution and Secretion into Milk” (Pharmaceutics, 2024)
# How the values were obtained:
# ovine ABCG2 = assay: Transepithelial transport assay in MDCK-II cells transduced with ovine ABCG2; type: in vitro ADME; settings: sheep, MDCK-II oABCG2, nitroxynil 10 µM, no Ko143, read-out: Relative efflux transport ratio (BA/AB)
# Protocol: Parental Madin–Darby canine kidney epithelial cells (MDCK–II) and their subclones transduced with murine (mAbcg2) and human (hABCG2) variants of ABCG2 were kindly provided by Dr. A. H. Schinkel (Netherlands Cancer Institute). Transduced MDCK–II cells with the ovine (oABCG2) and bovine (bABCG2) variants were previously generated by our group. Cells were cultured as described elsewhere.
# Transepithelial transport assays were carried out as previously described with minor variations, using Hanks’ balanced salt solution (Sigma-Aldrich) supplemented with HEPES (25 mM), with or without Ko143 (1 μM), and containing or not nitroxynil 10 μM. […] At the end of the experiment, confluence of the monolayer was measured with the previously described Lucifer Yellow permeability test, with minor modifications. The appearance of nitroxynil in the opposite side of the well was measured by HPLC as later described. Active transport was expressed as relative efflux transport ratio (apically directed transport percentage divided by the basolaterally directed translocation percentage) at 4 h and referred to the initial concentration. […]
# (§1) Waters 2695 separation module and Waters 2998 UV photodiode array detector set at 270 nm were used for samples analysis. […] Limit of detection (LOD) and quantification (LOQ) were calculated as previously described. […]
# murine Abcg2 = target: T1, murine Abcg2 (Mus musculus, UniProt Q7TMS5); assay: Plasma pharmacokinetics in wild-type and Abcg2−/− male mice; type: in vivo; design: from tissue; host or cells: whole animal: wild-type vs Abcg2-/- mice, >99% FVB/N background; settings: 10 mg/kg s.c.
# T1 sequence (Q7TMS5 1-657): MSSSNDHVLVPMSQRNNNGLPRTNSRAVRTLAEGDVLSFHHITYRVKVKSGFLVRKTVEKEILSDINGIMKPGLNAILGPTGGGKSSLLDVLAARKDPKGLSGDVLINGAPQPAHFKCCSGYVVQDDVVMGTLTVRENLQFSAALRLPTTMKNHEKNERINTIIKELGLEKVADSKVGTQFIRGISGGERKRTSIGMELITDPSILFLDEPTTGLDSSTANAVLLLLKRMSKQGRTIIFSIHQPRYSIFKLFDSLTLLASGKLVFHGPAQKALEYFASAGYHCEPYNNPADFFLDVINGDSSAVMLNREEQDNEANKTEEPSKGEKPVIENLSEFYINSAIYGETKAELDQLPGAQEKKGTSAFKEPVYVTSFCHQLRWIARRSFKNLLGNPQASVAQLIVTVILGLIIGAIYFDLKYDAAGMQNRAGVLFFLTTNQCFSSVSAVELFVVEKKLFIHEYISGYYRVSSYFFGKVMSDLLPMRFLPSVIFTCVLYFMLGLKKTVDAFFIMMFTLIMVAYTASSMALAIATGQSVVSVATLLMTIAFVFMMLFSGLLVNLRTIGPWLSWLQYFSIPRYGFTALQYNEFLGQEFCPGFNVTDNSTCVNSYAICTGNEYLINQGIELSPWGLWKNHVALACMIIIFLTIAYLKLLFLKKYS
# Protocol: All in vivo experiments were carried out using wild-type and Abcg2^−/− mice aged between 8 and 17 weeks, all of >99% FVB/N genetic background, generated and gently supplied by A. H. Schinkel (Netherlands Cancer Institute). Mice were housed and handled complying with institutional and ARRIVE guidelines and European legislation (EU Directive 2010/63/EU for animal experiments). Additionally, experimental procedures were approved by the Animal Care and Use Committee of the University of León and the Junta de Castilla y León (ULE_011_2019).
# For pharmacokinetic experiments, a single dose of nitroxynil at 10 mg/kg was administered subcutaneously to wild-type and Abcg2^−/− male mice (n = 4–5, for each time point). Distomicide® (250 mg/mL) commercial solution was dissolved in saline (sodium chloride 0.9%) and dosed at 200 μL per 30 g body weight. Blood samples were collected at different time points (0.5, 3, 4.5, 6, 24, 48 and 96 h) and heparinized blood samples were centrifugated for 15 min at 3000× g. […]
# Plasma, milk and tissue samples from each animal were individually processed and analyzed without pooling, while samples from transport assays were not processed. […]
# as §1
# [1] = design: method as in PMID 7180778; settings: cited from earlier work
smiles,measurement,setting,value
N#Cc1cc(I)c(O)c([N+](=O)[O-])c1 [nitroxynil],"efflux ratio at 4 h, 10 µM",ovine ABCG2,27.4 ± 5.32
same,AUC,"murine Abcg2; FVB/N, mouse, plasma, sc, wild-type male mice, 0.5-96 h",1920 ± 49.1 µg·h/mL
same,"Plasma AUC, fold higher in Abcg2−/− compared with wild-type",murine Abcg2; male mice,1.8 fold
same,Time after treatment at which residues have been found in tissues,[1],≤ 90 days
